Measurements reported in the NIST ThermoML archive (doi:10.1021/je060343y).

Assays:
[1] = 101 kPa, Liquid
[2] = φn = volume fraction of the nth substance listed; conditions: 101 kPa, Liquid

CNC(C)=O [N-methylacetamide]
[1]
Conditions	mass density [kg/m3]	speed of sound [m/s]
303.15 K	951.3	1367
308.15 K	945.9	1362
313.15 K	943.6	1334
318.15 K	939.9	1319

CNC(C)=O [N-methylacetamide] + CCOC(=O)CC#N
[2], φ1 = 1
Conditions	mass density [kg/m3]	speed of sound [m/s]
303.15 K	951.3	1367
308.15 K	945.9	1362
313.15 K	943.6	1334
318.15 K	939.9	1319

CNC(C)=O [N-methylacetamide] + CCOC(=O)CCl
[2], φ1 = 1
Conditions	mass density [kg/m3]	speed of sound [m/s]
303.15 K	951.3	1367
308.15 K	945.9	1362
313.15 K	943.6	1334
318.15 K	939.9	1319

CNC(C)=O [N-methylacetamide] + CCOC(C)=O
[2]
Conditions	mass density [kg/m3]	speed of sound [m/s]
303.15 K, φ1 = 0.0538	893.87	1132
303.15 K, φ1 = 0.1843	903.06	1167
303.15 K, φ1 = 0.2972	910.76	1197
303.15 K, φ1 = 0.3991	917.49	1223
303.15 K, φ1 = 0.4982	923.67	1248
303.15 K, φ1 = 0.594	929.3	1271
303.15 K, φ1 = 0.6955	935.03	1295
303.15 K, φ1 = 0.7437	937.68	1306
303.15 K, φ1 = 0.9463	948.19	1354
303.15 K, φ1 = 1	951.3	1367
308.15 K, φ1 = 0.0537	887.58	1114
308.15 K, φ1 = 0.1841	896.86	1149
308.15 K, φ1 = 0.2969	904.58	1180
308.15 K, φ1 = 0.3988	911.43	1208
308.15 K, φ1 = 0.4979	917.94	1234
308.15 K, φ1 = 0.5937	923.93	1259
308.15 K, φ1 = 0.6952	930.02	1284
308.15 K, φ1 = 0.7434	932.86	1296
308.15 K, φ1 = 0.9488	943.96	1348
308.15 K, φ1 = 1	945.9	1362
313.15 K, φ1 = 0.0534	880.97	1097
313.15 K, φ1 = 0.1833	891.3	1132
313.15 K, φ1 = 0.2958	899.84	1161
313.15 K, φ1 = 0.3976	907.15	1188
313.15 K, φ1 = 0.4966	913.79	1214
313.15 K, φ1 = 0.5924	920.09	1238
313.15 K, φ1 = 0.6941	926.71	1263
313.15 K, φ1 = 0.7431	929.67	1274
313.15 K, φ1 = 0.946	941.22	1322
313.15 K, φ1 = 1	943.6	1334
318.15 K, φ1 = 0.0533	875.13	1074
318.15 K, φ1 = 0.1828	886.1	1113
318.15 K, φ1 = 0.2951	894.79	1144
318.15 K, φ1 = 0.3968	902.46	1172
318.15 K, φ1 = 0.4958	909.37	1198
318.15 K, φ1 = 0.5916	915.67	1223
318.15 K, φ1 = 0.6934	922.12	1249
318.15 K, φ1 = 0.7418	925.21	1261
318.15 K, φ1 = 0.9458	937.26	1309
318.15 K, φ1 = 1	939.9	1319

CCOC(C)=O [ethyl acetate]
[1]
Conditions	mass density [kg/m3]	speed of sound [m/s]
303.15 K	888.9	1119
308.15 K	882.6	1098
313.15 K	875.9	1081
318.15 K	869.6	1058

CCOC(C)=O [ethyl acetate] + CNC(C)=O
[2], φ2 = 0
Conditions	mass density [kg/m3]	speed of sound [m/s]
303.15 K	888.9	1119
308.15 K	882.6	1098
313.15 K	875.9	1081
318.15 K	869.6	1058

CCOC(=O)CCl [ethyl chloroethanoate]
[1]
Conditions	mass density [kg/m3]	speed of sound [m/s]
303.15 K	1139.29	1229
308.15 K	1132.5	1212
313.15 K	1125.9	1198
318.15 K	1119.9	1177

CCOC(=O)CCl [ethyl chloroethanoate] + CNC(C)=O
[2]
Conditions	mass density [kg/m3]	speed of sound [m/s]
303.15 K, φ2 = 0	1139.29	1229
303.15 K, φ2 = 0.0547	1128.33	1238
303.15 K, φ2 = 0.154	1110.27	1252
303.15 K, φ2 = 0.2473	1093.79	1265
303.15 K, φ2 = 0.2903	1085.92	1272
303.15 K, φ2 = 0.4356	1059.31	1293
303.15 K, φ2 = 0.5321	1041.12	1305
303.15 K, φ2 = 0.6203	1024.32	1317
303.15 K, φ2 = 0.7118	1006.88	1329
303.15 K, φ2 = 0.8656	977.31	1350
308.15 K, φ2 = 0	1132.5	1212
308.15 K, φ2 = 0.0547	1123.26	1221
308.15 K, φ2 = 0.154	1105.23	1235
308.15 K, φ2 = 0.2473	1088.2	1249
308.15 K, φ2 = 0.2902	1080.37	1256
308.15 K, φ2 = 0.4356	1053.83	1277
308.15 K, φ2 = 0.532	1036.02	1291
308.15 K, φ2 = 0.6202	1019.38	1304
308.15 K, φ2 = 0.7118	1002.05	1318
308.15 K, φ2 = 0.8656	972.28	1342
313.15 K, φ2 = 0	1125.9	1198
313.15 K, φ2 = 0.0545	1115.23	1207
313.15 K, φ2 = 0.1535	1098.23	1220
313.15 K, φ2 = 0.2466	1082.14	1233
313.15 K, φ2 = 0.2895	1074.53	1239
313.15 K, φ2 = 0.4347	1048.13	1259
313.15 K, φ2 = 0.5312	1030.46	1271
313.15 K, φ2 = 0.6194	1014.19	1283
313.15 K, φ2 = 0.7111	997.15	1296
313.15 K, φ2 = 0.8652	968.5	1317
318.15 K, φ2 = 0	1119.9	1177
318.15 K, φ2 = 0.0544	1109.19	1187
318.15 K, φ2 = 0.1533	1090.85	1202
318.15 K, φ2 = 0.2464	1073.98	1207
318.15 K, φ2 = 0.2892	1066.23	1212
318.15 K, φ2 = 0.4344	1040.02	1231
318.15 K, φ2 = 0.5308	1022.75	1244
318.15 K, φ2 = 0.6191	1007.06	1257
318.15 K, φ2 = 0.7108	990.68	1272
318.15 K, φ2 = 0.865	963.31	1296

CCOC(=O)CC#N [ethyl cyanoacetate]
[1]
Conditions	mass density [kg/m3]	speed of sound [m/s]
303.15 K	1051.4	1397
308.15 K	1046.5	1385
313.15 K	1040.8	1368
318.15 K	1034.7	1359

CCOC(=O)CC#N [ethyl cyanoacetate] + CNC(C)=O
[2]
Conditions	mass density [kg/m3]	speed of sound [m/s]
303.15 K, φ2 = 0	1051.4	1397
303.15 K, φ2 = 0.0529	1048.11	1396
303.15 K, φ2 = 0.186	1036.06	1391
303.15 K, φ2 = 0.2745	1027.82	1389
303.15 K, φ2 = 0.3672	1018.95	1386
303.15 K, φ2 = 0.4502	1010.93	1384
303.15 K, φ2 = 0.5435	1001.23	1380
303.15 K, φ2 = 0.5664	998.75	1379
303.15 K, φ2 = 0.7307	980.97	1375
303.15 K, φ2 = 0.8795	964.97	1370
308.15 K, φ2 = 0	1046.5	1385
308.15 K, φ2 = 0.0529	1041.91	1384
308.15 K, φ2 = 0.1862	1029.63	1380
308.15 K, φ2 = 0.2747	1021.42	1378
308.15 K, φ2 = 0.3675	1012.63	1375
308.15 K, φ2 = 0.4504	1004.44	1373
308.15 K, φ2 = 0.5438	994.68	1371
308.15 K, φ2 = 0.5666	992.26	1370
308.15 K, φ2 = 0.7309	974.66	1367
308.15 K, φ2 = 0.8796	958.76	1365
313.15 K, φ2 = 0	1040.8	1368
313.15 K, φ2 = 0.0528	1036.3	1366
313.15 K, φ2 = 0.1857	1024.28	1362
313.15 K, φ2 = 0.2741	1015.97	1359
313.15 K, φ2 = 0.3667	1007.36	1356
313.15 K, φ2 = 0.4497	999.41	1353
313.15 K, φ2 = 0.543	990.26	1349
313.15 K, φ2 = 0.5659	987.92	1348
313.15 K, φ2 = 0.7303	971.38	1343
313.15 K, φ2 = 0.8793	956.39	1337
318.15 K, φ2 = 0	1034.7	1359
318.15 K, φ2 = 0.0527	1030.52	1358
318.15 K, φ2 = 0.1854	1018.59	1356
318.15 K, φ2 = 0.2737	1010.48	1352
318.15 K, φ2 = 0.3663	1001.85	1348
318.15 K, φ2 = 0.4492	994.13	1345
318.15 K, φ2 = 0.5425	985.18	1341
318.15 K, φ2 = 0.5654	982.97	1340
318.15 K, φ2 = 0.7299	966.83	1332
318.15 K, φ2 = 0.8791	952.07	1324
